{"source": "patent US20090253209A1", "about": "“Method of obtaining BZM purity, quantity of [123I]IBZM labeled ligand and quantity of BZM free ligand” (ATOMIC ENERGY COUNCIL - INSTITUTE OF NUCLEAR ENERGY RESEARCH, priority 2008, published 2009)", "key": {"[1]": {"test_system": "D2/D3 receptor (D2/D3R)", "conditions": "in rats; compared with [^123I] IBZM; cited from earlier work"}, "[2]": {"test": "solution stability test of BZM solution by HPLC", "assay_type": "physicochemical", "conditions": "BZM dissolved in DMSO, room temperature, three days", "excerpt": "(7) For the solution stability test, a sum of BZM solution is put under a room temperature to be processed with HPLC analysis for three days, as shown in FIG. 12. Consequently, the difference of BZM retention time is 0.64%; the resolution difference is 5.81%; the purity difference is −0.37%; the difference of a linear least square regression slope is −3.18%; and linear correlation coefficients are all greater than 0.9997."}}, "data": [{"smiles": "CCN1CCC[C@H]1CNC(=O)c1c(O)cccc1OC", "note": "[BZM, (S)-(-)-2-hydroxy-6-methoxy-N-[(1-ethyl-2-pyrrolidinyl)methyl]benzamide]", "values": [{"measurement": "bonding to D2/D3 receptor relative to [^123I] IBZM", "setting": "[1]", "result": "far small bonding to D2/D3 receptor (D2/D3R) than [^123I] IBZM"}, {"measurement": "solution stability (in words)", "setting": "[2]", "result": "good stability"}, {"measurement": "purity difference (solution stability)", "setting": "[2]; HPLC analysis", "result": "−0.37", "unit": "%"}]}]}
